Among the test systems are NCI-H522; A549; SK-MEL-28; EKVX; SF-295; MDA-MB-435; SN12C; CCRF-CEM; A498; RXF 393; M14; DU-145; MDA-N; RPMI-8226; HOP-92; HCC 2998; LOX IMVI; SNB-75; SK-OV-3; BT-549.
Assay in all cases: NCI tumour cell line growth inhibition, 48 h

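Values below derive from 48-hour exposures of cells grown in 96-well plates, with endpoints linearly interpolated between the two concentrations bracketing the appropriate inhibition level. At the GI50, growth is halved.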 The source made the active and inactive calls. No stated cut-off is given here; in the data, active = GI50 up to about 1.1 µM and inactive = higher.

Regarding `CCOC(=O)/C(C(=S)NCc1ccccc1)=C(/N)N1CCCC1`, the GI50 with NCI-H522, with A549, in the assay with SK-MEL-28, with EKVX, with SF-295 and in the assay with MDA-MB-435 was > 100 µM (inactive) each time. Besides, the GI50 in the assay on SN12C, in the assay with CCRF-CEM, in the assay on A498, in the assay with RXF 393, in the assay on M14 and in the assay on DU-145 was > 100 µM (inactive) in each case. In addition, the GI50 with MDA-N, in the assay with RPMI-8226, in the assay on HOP-92, in the assay with HCC 2998 and in the assay on LOX IMVI was > 100 µM (inactive) in each case.
As for `Cc1c2oc3c(C)cc(F)c(C(=O)NC4C(=O)NC(C(C)C)C(=O)N5CCCC5C(=O)N(C)CC(=O)N(C)C(C(C)C)C(=O)OC4C)c3nc-2c(C(=O)NC2C(=O)NC(C(C)C)C(=O)N3CCCC3C(=O)N(C)CC(=O)N(C)C(C(C)C)C(=O)OC2C)c(N)c1=O` (stereo not drawn), the GI50 was 0.00188 µM (active) in the assay with NCI-H522; 0.0148 µM (active) in the assay with A549; 0.163 µM (active) in the assay on SNB-75; 0.0263 µM (active) in the assay on SK-MEL-28; 1.75 µM (inactive) with EKVX; 0.00708 µM (active) in the assay on SF-295. Further, the GI50 in the assay with MDA-MB-435 was 0.00757 µM (active); with SN12C it was 0.0303 µM (active); with CCRF-CEM it was < 0.001 µM (active); in the assay on A498, 0.161 µM (active); in the assay on RXF 393, 0.106 µM (active); with M14 it was 0.0826 µM (active). The GI50 was 0.16 µM (active) with SK-OV-3; 0.115 µM (active) in the assay with DU-145; 0.0024 µM (active) in the assay with MDA-N; < 0.001 µM (active) in the assay on RPMI-8226; 0.154 µM (active) with HOP-92; 0.109 µM (active) in the assay on HCC 2998. Also, in the assay with LOX IMVI, the GI50 is 0.00255 µM (active).
Regarding `CN1CCN(Cn2nc(COc3ccccc3Cl)n(/N=C/c3ccc(-c4ccc(Cl)cc4Cl)o3)c2=S)CC1`, the GI50 with NCI-H522 was 26.2 µM (inactive); in the assay on SK-MEL-28, 60.5 µM (inactive); in the assay on EKVX it was 39.4 µM (inactive); in the assay with SF-295, 27.4 µM (inactive); in the assay with MDA-MB-435, 24.8 µM (inactive); with CCRF-CEM it was 25.6 µM (inactive). Moreover, the GI50 with A498 was 19.1 µM (inactive); in the assay with RXF 393, 17.3 µM (inactive); in the assay on M14, 28.8 µM (inactive); with SK-OV-3 it was 35.5 µM (inactive); in the assay with DU-145, 20 µM (inactive); with MDA-N, 23.5 µM (inactive). In addition, the GI50 with RPMI-8226 is 29.2 µM (inactive); in the assay with HOP-92, 14.3 µM (inactive); in the assay with HCC 2998, 19.6 µM (inactive); with LOX IMVI it was 33.4 µM (inactive).
As to `COc1ccc([N+](=O)[O-])cc1[I+]c1cc([N+](=O)[O-])ccc1OC`, the GI50 was 27 µM (inactive) with NCI-H522; 45.8 µM (inactive) in the assay on A549; 7.64 µM (inactive) in the assay with SK-MEL-28; 33.8 µM (inactive) with EKVX; 33.3 µM (inactive) with SF-295; 21.3 µM (inactive) in the assay on MDA-MB-435. Also, the GI50 was 43.5 µM (inactive) in the assay with SN12C; 25.4 µM (inactive) in the assay with CCRF-CEM; 81.5 µM (inactive) in the assay with A498; 27.7 µM (inactive) in the assay on RXF 393; 39.6 µM (inactive) in the assay on M14; 29.4 µM (inactive) in the assay on SK-OV-3. For the same compound, the GI50 was > 100 µM (inactive) in the assay on DU-145; 23.7 µM (inactive) with RPMI-8226; 42.2 µM (inactive) in the assay with HCC 2998; 29.4 µM (inactive) in the assay on LOX IMVI; 30.9 µM (inactive) in the assay on BT-549.
Turning to `COc1ccc(/C=C2\NC(=S)N(CN3CCOCC3)C2=O)cc1`, the GI50 with A549, in the assay on SNB-75, with SK-MEL-28, in the assay on EKVX, in the assay with SF-295 and with MDA-MB-435 was > 100 µM (inactive) throughout. Besides, the GI50 in the assay with SN12C was > 100 µM (inactive); in the assay with CCRF-CEM it was > 100 µM (inactive); in the assay with A498 it was 26.1 µM (inactive); in the assay with M14 it was > 100 µM (inactive); in the assay with SK-OV-3, > 100 µM (inactive); in the assay on DU-145, > 100 µM (inactive). Also, the GI50 with MDA-N, with RPMI-8226, in the assay with HOP-92 and in the assay on LOX IMVI was > 100 µM (inactive) throughout.
For `CCN(CC)CC/N=c1\c2cc(OC)ccc2[nH]c2c([N+](=O)[O-])ccc(NCCN(CC)CC)c12`, the GI50 in the assay with NCI-H522 was 1.14 µM (inactive); in the assay on A549 it was 1.05 µM (active); in the assay on SNB-75, 1.9 µM (inactive); in the assay on SK-MEL-28 it was 4.11 µM (inactive); in the assay with EKVX, 1.93 µM (inactive); in the assay on SF-295 it was 1.26 µM (inactive). Also, the GI50 is 1.88 µM (inactive) with MDA-MB-435; 0.925 µM (active) with SN12C; 0.258 µM (active) in the assay on CCRF-CEM; 2.3 µM (inactive) in the assay on A498; 1.26 µM (inactive) in the assay with RXF 393; 2.88 µM (inactive) in the assay on M14. Further, the GI50 in the assay on SK-OV-3 is 3.12 µM (inactive); in the assay on DU-145, 2.37 µM (inactive); in the assay on MDA-N, 1.12 µM (inactive); in the assay with RPMI-8226, 0.451 µM (active); in the assay with HOP-92, 1.83 µM (inactive); with HCC 2998, 0.718 µM (active). Besides, the GI50 in the assay on LOX IMVI is 0.794 µM (active).
As for `N#CC1=C(N)Nc2nc3ccccc3n2C1c1ccccc1` (stereo not drawn), the GI50 with A549 is 42 µM (inactive); with EKVX, 9.2 µM (inactive); in the assay with SF-295, 27.7 µM (inactive); in the assay with MDA-MB-435, 45.6 µM (inactive); with SN12C, > 100 µM (inactive); in the assay with CCRF-CEM, 6.44 µM (inactive). Further, the GI50 in the assay with A498 was 21.6 µM (inactive); in the assay on RXF 393, 16.1 µM (inactive); in the assay on M14, > 100 µM (inactive); in the assay on SK-OV-3, 83.4 µM (inactive); with DU-145, 35.3 µM (inactive); with RPMI-8226, 6.41 µM (inactive). Also, the GI50 in the assay on LOX IMVI is 62.7 µM (inactive); in the assay with BT-549, 23.8 µM (inactive).
Take `COc1cc(O)c2c(c1)C(=O)c1cc3c(c(O)c1C2=O)C(OC1OC(C)C(OC)C(O)C1OC)C(OC)C(C)(O)C3=O` (stereo not drawn): the GI50 was 1.68 µM (inactive) in the assay with NCI-H522; 3.55 µM (inactive) in the assay on A549; 4.15 µM (inactive) in the assay on SNB-75; 7.01 µM (inactive) with SK-MEL-28; 3.37 µM (inactive) in the assay with EKVX; 4.73 µM (inactive) with SF-295. Besides, the GI50 with MDA-MB-435 was 3.8 µM (inactive); in the assay with CCRF-CEM, 4.1 µM (inactive); in the assay with A498, 5.53 µM (inactive); with M14 it was 3.02 µM (inactive); in the assay with SK-OV-3, 13.3 µM (inactive); in the assay with RPMI-8226 it was 1.29 µM (inactive). In addition, the GI50 was 5.02 µM (inactive) in the assay with HCC 2998, 2.7 µM (inactive) in the assay with LOX IMVI and 14.5 µM (inactive) in the assay on BT-549.
